Data published in patent US20140370129A1, “DOSING REGIMEN AND METHOD FOR TREATING CANCER USING A COIX SEED OIL EMULSION” (Zhejiang Kanglaite Group Co., Ltd., priority 2013, published 2014).

Tests used:
[1] = tested on: advanced or metastatic adenocarcinoma of the pancreas; conditions: first-line therapy; P=0.003; cited from earlier work
[2] = tested on: locally advanced or metastatic pancreatic cancer; experiment: Phase 2b study of Kanglaite Injection plus gemcitabine vs gemcitabine alone; type: in vivo
Excerpt: Efficacy of the treatment may be monitored, for example, by CT scans of the patients to determine growth or progression of the tumor, or Karnofsky performance. The Karnofsky Performance Scale Index allows patients to be classified on a scale of 0 to 100 as to their functional impairment, with zero indicating death and 100 indicating no patient complaints and no evidence of disease. The primary efficacy outcome measure for the efficacy trial described in Example 2 was Progression Free Survival (PFS). PFS includes patient deaths and assumes that death is related to progression of cancer, a reasonable assumption with pancreatic cancer. PFS is defined as the time interval from randomization to objective tumor progression or death.
As shown in Example 2, efficacy of the treatment was evaluated in part using RECIST 1.1 RECIST refers to the Response Evaluation Criteria for Solid Tumors assessment tool an involves measuring tumors (lesions) in patient using, for example, CT or MRI. As noted above, RECIST Version 1.1 was utilized in evaluating patient responses.
A phase 2b, multi-center, randomized, open-label clinical trial compared the effect of gemcitabine in combination with KLTi to gemcitabine alone in patients with locally advanced or metastatic pancreatic cancer, not amenable to curative surgical resection.
A total of 41 patients were randomized to Cohort 1 with 38 included in the safety population, specifying all patients who received at least one dose of study drug. Thirty-seven of the 38 patients had been diagnosed as having Stage IV pancreatic cancer. Twenty-six patients were assigned to Group 1 to receive both KLTi and gemcitabine while 12 patients were assigned to Group 2 to receive only gemcitabine.
All patients received marketed gemcitabine, which was administered at 1000 mg/m^2 over a minimum of 30 min and a maximum of 38 min once weekly for 3 weeks, followed by a rest period of 13 days before the next gemcitabine dose. Based on a chemotherapy cycle of 28 days (4 weeks), gemcitabine was given on Days 1, 8, and 15 of the 28-day cycle. For patients in Group 1, KLTi infusion was administered on each of Days 1-5 for each of those same 3 weeks (i.e., Days 1-5, Days 8-12 and Days 15-19). Patients were then rested for the remaining 9 days of the cycle (Days 20-28).
Dosing of Group 1 patients included administration of KLTi at a dose of 30 g/day provided as a 300 mL volume. For the first 2 KLTi infusions for each patient, the infusion rate was started at 1.0 mL/min for the first 15 min, and then increased to 150 mL/hr until the KLTi was completely infused if no safety issues were apparent. Once safety was established in the first 2 infusions, all subsequent KLTi infusions were given at a target rate of 150 m L/hr. Beginning with cycle 2, the target rate of infusion may, however, have been increased to […]. The total infusion time for 300 mL of KLTi was therefore expected to be approximately 2 hr for Cycle 1 and approximately 90 min for all remaining cycles.
Progression Free Survival (PFS) was calculated from the date of randomization to the date of objective disease progression or death. Patients without objective disease progression or death were censored at their last evaluable tumor assessment. […] This significant increase in PFS in Group 1 as compared to Group 2 is indicative of the significant advantage of administering KLTi in combination to gemcidabine as compared to administering gemcidabine alone to treat pancreatic cancer.

[3] = tested on: advanced or metastatic pancreatic carcinomas; conditions: erlotinib versus placebo, with gemcitabine; cited from earlier work
[4] = tested on: metastatic pancreatic adenocarcinoma; conditions: not previously treated with chemotherapy; cited from earlier work
[5] = tested on: pancreatic cancer; conditions: human, in vivo; cited from earlier work
[6] = RECIST 1.1, Efficacy Evaluable Population, n (%)
[7] = RECIST 1.1, Intent To Treat Population, n (%)

Structure (SMILES): O=c1[nH]cc(F)c(=O)[nH]1 [5-FU, fluorouracil]
- 1-year survival [1]: 2%

Structure (SMILES): Nc1ccn([C@@H]2O[C@H](CO)[C@@H](O)C2(F)F)c(=O)n1 [Gemcidabine, gemcitabine]
- PFS Rate 1 month ([2]; 1 month): 75%
- PFS Rate 1 year ([2]; 1 year): 8.3%
- PFS Rate 3 months ([2]; 3 months): 25%
- PFS Rate 4 months ([2]; 4 months): 25%
- PFS Rate 6 months ([2]; 6 months): 8.3%
- Median PFS ([2]; Progression Free Survival, randomization to objective progression or death, KLTi 30 g/day IV Days 1-5, 8-12, 15-19 with gemcitabine 1000 mg/m^2 Days 1, 8, 15 of 28-day cycle): 57.5 days
- CR + PR (%) [2, 6]: 1 (11.1%)
- Complete Response (CR) [2, 6]: 0 (0%)
- Partial Response (PR) [2, 6]: 1 (11.1%)
- Progressive Disease (PD) [2, 6]: 6 (66.7%)
- Complete Response (CR) [2, 7]: 0 (0%)
- Partial Response (PR) [2, 7]: 1 (7.7%)
- Progressive Disease (PD) [2, 7]: 6 (46.2%)
- 1-year survival [1]: 18%
- 1-year survival rate [3]: 17%
- median survival [3]: 5.9 months
- median overall survival [4]: 6.8 months
- alive at the end of the first year [5]: 22%
